Data as given in patent US20150297591A1, “METHODS OF TREATING PULMONARY FIBROSIS” (Duke University, priority 2012, published 2015).

Experiments:
[1] = following RT; by decreasing free radical injury; cited from earlier work
C57L/J (L/J) mice [2] = test: C57L/J model, toluidine blue staining for mast cells in lung sections; format: in vivo, mouse; settings: 15 weeks post-RT, single dose 24 h post-RT
Protocol: (§1) In a second series of experiments, C57L/J (L/J) mice were treated with 15 Gy of thoracic radiation. L/J mice are exquisitely sensitive to even low doses of RT, and rapidly develop both pneumonitis and fibrosis. Groups of L/J mice were injected intraperitoneally with PBS, 77427 or 2A11, given as a single dose (20 nmole per mouse) at 24 hours post-RT.
There were no detectable subpleural or interstitial mast cells in any sham controls, nor in any lungs at 10 weeks post-RT. At 15 weeks post-RT there was a dramatic accumulation of mast cells subpleurally (black arrows) and in the alveolar interstitium (red arrows). These were most abundant in mice treated with RT+PBS (FIG. 8A), with a reduction by over 50% in mice give 77427 (FIG. 8B). Total numbers of subpleural mast cells have been quantified for all of the lung tissue on each slide and will be normalized for the length of pleura present.

C57L/J (L/J) mice [3] = test: C57L/J model, hydroxyproline assay on whole mouse lungs (total lung collagen); format: in vivo; settings: 15 weeks post-RT, single dose, initial assay results
Protocol: as §1
As a second measure of pulmonary collagen levels, we carried out the hydroxyproline assay on whole mouse lungs from the same groups of mice as given in the legend to FIG. 3. There is a trend toward increased collagen at 15 weeks post-RT, which is confounded to some extent by the presence of collagen in connective tissue of blood vessels and airways in normal lung. Additional samples are being assayed in the near future.

C57BL/6 mice = test: Radiation fibrosis model in C57BL/6 mice (15 Gy thoracic RT), SMA immunostaining of lung; format: in vivo, mouse; settings: C57BL/6 lungs 20 wks post-15 Gy; 77427 IP twice weekly for 20 weeks; vs RT+PBS
Excerpt: Our first investigation tested the hypothesis that GRP contributes to RTP using an established mouse model of radiation fibrosis in C57BL/6 mice, which are prone to fibrosis. Following exposure to high-dose thoracic radiation (15 Gy), we treated mice intraperitoneally (IP) with either PBS or GRP blockade by using small molecule 77427. We quantified results of immunohistochemistry by using quantitative image analysis with ImageJ to determine whether GRP contributes to RT-induced inflammatory responses and/or fibrosis, specifically including assessment of active TGFβsignaling^7. As noted above, the first investigation (FIGS. 1 and 2) tested the hypothesis that GRP contributes to RTP using an established mouse model of radiation fibrosis in C57BL/6 mice. Following exposure to high-dose thoracic radiation (15 Gy), we treated mice intraperitoneally (IP) with either PBS or GRP blockade by using small molecule 77427. We quantified results of immunohistochemistry by using quantitative image analysis with ImageJ to determine whether GRP contributes to RT-induced inflammatory responses and/or fibrosis, specifically including assessment of active TGFβ signaling^7. In FIG. 1B, note that there is extensive immunostaining for myofibroblasts in the alveolar walls (arrows) in mice exposed to RT 20 weeks earlier and given only PBS. […]

C57L/J (L/J) mice [4] = test: C57L/J model of radiation pneumonitis (15 Gy thoracic RT), SMA immunostaining of lung; format: in vivo, mouse
Protocol: as §1
It was recently observed by Zelcko Vujaskovic et al that C57L/J (L/J) mice have radiation sensitivity very similar to humans^19, making the L/J model of radiation-pneumonitis most clinically relevant. Using this L/J model, we treated mice IP with a single dose of 77427 (10 nmol per mouse) given IP at 24 hours post-RT. At 15 weeks later, we observed early evidence of pulmonary fibrosis that was abrogated by the single dose of 77427 (FIG. 3). […] Therefore, we have included a claim that GRP blockade may be a treatment to prevent, arrest, or reverse pulmonary arteriopathy leading to pulmonary hypertension, another serious and poorly understood medical condition that is now treated symptomatically.

C57L/J (L/J) mice [5] = test: C57L/J model, Masson's trichrome staining for collagen in alveoli; format: in vivo, mouse
Protocol: as §1
In normal, Sham-irradiated lung (FIG. 5A), there are only traces of green collagen staining in the alveolar walls (arrows). In contrast, 15 weeks post-RT, early collagen deposition is widespread throughout the alveolar walls.
We quantified the area of green trichrome staining in the trichrome-stained slides (including those shown in FIG. 5), using ImageJ, normalized for the total area of alveolar tissue in the same photomicrograph, similar to the analysis used for FIG. 4.

Row | SMILES | severity of RTP [1] | reduction of mast cells (subpleural and alveolar interstitium) versus RT+PBS (C57L/J (L/J) mice [2]) | subpleural mast cells (toluidine blue staining) (C57L/J (L/J) mice [2]) | hydroxyproline content of whole lung (total lung collagen) (C57L/J (L/J) mice [3]) | interstitial SMA staining (myofibroblasts in alveolar walls), early indicator of radiation fibrosis (C57BL/6 mice) | SMA+ myofibroblasts in small distal blood vessels (C57L/J (L/J) mice [4]; C57L/J lung 15 wks post-15 Gy, single dose IP 24 h post-RT) | early evidence of pulmonary fibrosis (SMA+ cells) (C57L/J (L/J) mice [4]; C57L/J, 15 weeks post-RT, single dose 10 nmol per mouse IP at 24 hours post-RT) | trichrome (collagen) levels in the alveoli (C57L/J (L/J) mice [5]; C57L/J lung 15 weeks post-15 Gy, single dose 24 h post-RT) | alveolar collagen deposition (quantified trichrome area normalized for alveolar tissue area) (C57L/J (L/J) mice [5]; C57L/J, 15 weeks post-high dose RT, RT+PBS vs RT+77427 P<0.001)
1 | CCN1C=CC=C/C1=C1/C2=NC(=C(c3cccc[n+]3CC)C3=NC(=C(c4cccc[n+]4CC)c4ccc([n-]4)C(c4cccc[n+]4CC)=C4C=CC1=N4)C=C3)C=C2.[Cl-].[Cl-].[Cl-].[Cl-].[Cl-].[Mn+3] [AEOL10113] | can reduce the severity of RTP | – | – | – | – | – | – | – | –
2 | Nc1nc(Cl)cc(NCCO)n1 [compound 77427] | – | over 50% | reduced | do not have elevated hydroxyproline content | abrogates this interstitial SMA staining | greatly reduces SMA+ myofibroblasts in small distal blood vessels | abrogated | reduced trichrome levels in the alveoli to near baseline levels | abrogates alveolar collagen deposition
